Results: publication PMC3561413 (PLoS ONE, 2013)

Legend:
[1] = test system: BFU-E from PV patients; assay: Colony assay for hematopoietic progenitors, BFU-E, PV patients; assay type: cell-based; conditions: Homo sapiens, 336 h; PV (n = 10), day 14; read-out: IC50, BFU-E colony formation
Protocol: (§1) Figure 3 mTOR and JAK2 inhibitors preferentially suppress colony formation from hematopoietic progenitors of MPN patients as compared to healthy controls. Mononuclear cells from patients with PV or PMF (n = 10 each) or control subjects (n = 10) were plated at 10^5/mL in cytokine-supplemented methylcellulose medium for the growth of erythroid burst-forming unit (BFU-E) and granulocyte-macrophage colony-forming unit (CFU-GM), and CD34^+ cells (5×10^4/mL) were plated in collagen-based medium for megakaryocyte colony-forming unit (CFU-Mk). […] Colonies were enumerated on day 14 and expressed as a percentage of the colonies grown in control plates containing vehicle only.

[2] = test system: BFU-E from healthy controls; assay: Colony assay for hematopoietic progenitors, BFU-E, healthy controls; assay type: cell-based; conditions: Homo sapiens, 336 h; Ctrl (n = 10), day 14; read-out: IC50, BFU-E colony formation
Protocol: as §1

[3] = test system: CFU-Mk from PV patients; assay: Colony assay for hematopoietic progenitors, CFU-Mk, PV patients; assay type: cell-based; conditions: Homo sapiens, 336 h; PV (n = 10), day 14; read-out: IC50, CFU-Mk colony formation
Protocol: as §1

[4] = test system: CFU-GM from PMF patients; assay: Colony assay for hematopoietic progenitors, CFU-GM, PMF patients; assay type: cell-based; conditions: Homo sapiens, 336 h, MF (n = 10), day 14, read-out: IC50, CFU-GM colony formation
Protocol: as §1

[5] = test system: Ba/F3-EPOR wt cells (JAK2 wild-type); assay: Inhibition of proliferation assay (WST-1, 48 h), Ba/F3-EPOR wt; assay type: cell-based; conditions: Mus musculus, 1 U/mL EPO, mean±SD, read-out: IC50 of cell proliferation
Protocol: (§2) Ba/F3-EPOR cells, both wt and VF, HEL and SET2 cells were plated at 2×10^4 in 96-well culture tissue plates with increasing concentrations of the drug(s), in triplicate, and the amount of viable cells was assessed at 48 h using the WST-1 assay (Roche, USA) after normalization to wells containing an equivalent volume of vehicle (DMSO) only. For clonogenic assay, 5×10^3 cells were plated in 0.5% agar in medium supplemented with 10% FBS (plus 1 U/mL EPO in case of Ba/F3-EPOR wt cells); variable amount of the drug(s) (or an equivalent volume of vehicle in control plates) was added once at the beginning of culture. Colonies were enumerated by inverted microscopy after 7 day incubation, in duplicate. Quantification of apoptotic cells was accomplished by flow cytometry using the Annexin-V-FLUOS Staining kit (Roche); at least 20,000 events were acquired. For cell cycle distribution analysis by flow cytometry, 1×10^6 cells were treated with ethanol 95%, RNase 10 µg/mL and propidium iodide […].

[6] = test system: CFU-Mk from healthy controls; assay: Colony assay for hematopoietic progenitors, CFU-Mk, healthy controls; assay type: cell-based; conditions: Homo sapiens, 336 h; Ctrl (n = 10), day 14; read-out: IC50, CFU-Mk colony formation
Protocol: as §1

[7] = test system: SET2 cells; assay: Apoptosis (Annexin V flow cytometry), SET2; assay type: cell-based; conditions: Homo sapiens, SET-2; SET2, median
Protocol: as §2

[8] = test system: Ba/F3-EPOR VF cells; assay: Apoptosis (Annexin V flow cytometry), Ba/F3-EPOR VF; assay type: cell-based, mouse; conditions: for IC50: Mus musculus, 48 h, median, read-out: IC50 for apoptosis (Annexin V positive cells)
Protocol: as §2
(§3) Results shown are the Mean±SD of at least three experiments. In panel B, the percentage of Annexin V-positive cells was measured in cultures of Ba/F3-EPOR VF cells exposed to varying amount of the drugs for 48 h; percentage was calculated after subtraction of background apoptosis in cells incubated without drug. Results shown are the Mean±SD of at least three experiments. (TIF) Click here for additional data file.

[9] = test system: CD34+ cells from healthy controls; assay: CD34+ proliferation assay (WST-1, 48 h), healthy controls; assay type: cell-based; conditions: Homo sapiens, CD34+ cell; healthy subjects n = 5, 48 h, cytokine cocktail
Protocol: (§4) To measure the drug-induced inhibition of CD34^+ cell growth, purified cells were plated at 3·10^4 cells/well in IDMEM supplemented with cytokines and variable amounts of the drugs were added. Cell proliferation was evaluated using the WST-1 Assay (Roche, USA) after 48 h and results were normalized to wells containing vehicle only.
(§5) CD34^+ cells from patients with PMF (n = 6) or control subjects (Ctr; n = 5) were plated at 2×10^5/mL in 96-well culture tissue plates with increasing concentrations of the drugs, in triplicate; viable cells were assessed after 48 hrs using the WST-1 assay and normalized to wells containing an equivalent volume of vehicle (DMSO) only.

[10] = test system: BFU-E from PMF patients; assay: Colony assay for hematopoietic progenitors, BFU-E, PMF patients; assay type: cell-based; conditions: Homo sapiens, 336 h; MF (n = 10), day 14; read-out: IC50, BFU-E colony formation
Protocol: as §1

[11] = test system: CFU-Mk from PMF patients; assay: Colony assay for hematopoietic progenitors, CFU-Mk, PMF patients; assay type: cell-based; conditions: Homo sapiens, 336 h; MF (n = 10), day 14; read-out: IC50, CFU-Mk colony formation
Protocol: as §1

[12] = test system: HEL cells (JAK2V617F mutated); assay: Clonogenic assay in agar, HEL; assay type: cell-based; conditions: Homo sapiens, Table 1
Protocol: as §2

[13] = test system: SET2 cells (JAK2V617F mutated); assay: Inhibition of proliferation assay (WST-1, 48 h), SET2; assay type: cell-based; conditions: Homo sapiens, SET-2, SET2, 48 h
Protocol: as §2

[14] = test system: HEL cells (JAK2V617F mutated); assay: Inhibition of proliferation assay (WST-1, 48 h), HEL; assay type: cell-based; conditions: Homo sapiens
Protocol: as §2

[15] = test system: EEC from peripheral blood mononuclear cells of PV patients; assay: EEC assay (erythropoietin-independent erythroid colonies), PV patients; conditions: Homo sapiens, PBMC, 240 h, read-out: IC50 of EEC growth
[16] = test system: CFU-GM from healthy controls; assay: Colony assay for hematopoietic progenitors, CFU-GM, healthy controls; assay type: cell-based; conditions: Homo sapiens, 336 h, Ctrl (n = 10), day 14, read-out: IC50, CFU-GM colony formation
Protocol: as §1

[17] = test system: Ba/F3-EPOR VF cells; assay: Cell cycle distribution analysis by flow cytometry (propidium iodide), Ba/F3-EPOR VF; assay type: cell-based; conditions: Mus musculus, after 24 hours, median value, read-out: concentration giving 50% reduction of the cells in the S-phase compared to untreated cells
Protocol: as §2, §3

[18] = test system: SET2 cells (JAK2V617F mutated); assay: Clonogenic assay in agar, SET2; assay type: cell-based; conditions: Homo sapiens, SET-2
Protocol: as §2

[19] = test system: CFU-GM from PV patients; assay: Colony assay for hematopoietic progenitors, CFU-GM, PV patients; assay type: cell-based; conditions: Homo sapiens, 336 h, PV (n = 10), day 14, read-out: IC50, CFU-GM colony formation
Protocol: as §1

[20] = test system: Ba/F3-EPOR VF cells (JAK2V617F); assay: Clonogenic assay in agar, Ba/F3-EPOR VF; assay type: cell-based; conditions: Mus musculus, 168 h, semisolid culture, 7 days, single drug, read-out: IC50 of colony formation (clonogenic assay)
Protocol: as §2

[21] = test system: Ba/F3-EPOR wt cells (JAK2 wild-type); assay: Clonogenic assay in agar, Ba/F3-EPOR wt; assay type: cell-based; conditions: Mus musculus, 168 h, semisolid culture, 7 days, 1 U/mL EPO, read-out: IC50 of colony formation (clonogenic assay)
Protocol: as §2

[22] = test system: Ba/F3-EPOR VF cells (JAK2V617F); assay: Inhibition of proliferation assay (WST-1, 48 h), Ba/F3-EPOR VF; assay type: cell-based; conditions: Mus musculus
Protocol: as §2

[23] = test system: SET2 cells; assay: Cell cycle distribution analysis by flow cytometry, SET2; assay type: cell-based; conditions: Homo sapiens, SET-2; SET2, median concentration; read-out: concentration giving 50% reduction of cells in the S-phase compared to controls
Protocol: as §2

[24] = test system: CD34+ cells from PMF patients; assay: CD34+ proliferation assay (WST-1, 48 h), PMF patients; assay type: cell-based; conditions: Homo sapiens, CD34+ cell; PMF patients n = 6, 48 h, cytokine cocktail
Protocol: as §4, §5

[25] = Table 3, read-out: IC50, proliferation, single drug
[26] = read-out: IC50, proliferation assay
[27] = SET2, Table 1, read-out: IC50, clonogenic assay
[28] = SET2, Table 3, read-out: IC50, clonogenic potential, single drug
[29] = SET2, running text b32, read-out: concentration preventing colony formation (mean value)
[30] = BaF3, 48 h, Ba/F3 VF liquid culture maintained with Epo 1 U/mL, read-out: IC50 of cell proliferation in the presence of Epo
[31] = Ba/F3-EPOR VF, 48 h, single drug, cytokine-free medium, mean±SD, read-out: IC50 of cell proliferation

Compound	IC50 [1] [nM]	IC50 [2] [nM]	IC50 [3] [nM]	IC50 [4] [nM]	IC50 [5] [nM]	IC50 [6] [nM]	IC50 [7] [nM]	IC50 [8] [nM]	IC50 [9] [nM]	IC50 [10] [nM]	IC50 [11] [nM]	IC50 [12] [nM]	IC50 [13, 25] [nM]	IC50 [13, 26] [nM]	IC50 [15] [nM]	IC50 [16] [nM]	IC50 [17] [nM]	IC50 [19] [nM]	IC50 [23] [nM]	IC50 [24] [nM]	further results
Cc1cc(Nc2nc(N[C@@H](C)c3ncc(F)cn3)ncc2Cl)n[nH]1 [AZD1480]	135 ± 19	226 ± 17	44 ± 2	9 ± 3	752 ± 30	400 ± 12	400	800	891 ± 100	27 ± 8	59 ± 3	460 ± 30	90 ± 5	90 ± 5	19 ± 2	193 ± 13	1200	46 ± 5	1500	474 ± 30	IC50 [14]: 860 ± 20 nM; IC50 [18, 27]: 35 ± 10 nM; IC50 [18, 28]: 35 ± 10 nM; IC50 [18, 29]: 35 nM; IC50 [20]: 19 ± 11 nM; IC50 [21]: 750 ± 100 nM; IC50 [22, 30]: 707 ± 11 nM; IC50 [22, 31]: 313 ± 23 nM
CO[C@H]1C[C@@H]2CC[C@@H](C)[C@@](O)(O2)C(=O)C(=O)N2CCCC[C@H]2C(=O)O[C@H]([C@H](C)C[C@@H]2CC[C@@H](OCCO)[C@H](OC)C2)CC(=O)[C@H](C)/C=C(\C)[C@@H](O)[C@@H](OC)C(=O)[C@H](C)C[C@H](C)/C=C/C=C/C=C/1C [RAD001, Everolimus]	91 ± 15	432 ± 22	50 ± 5	46 ± 13	11000	572 ± 13	38000	5000	> 5000	42 ± 10	44 ± 5	930 ± 10	17000	17000	15 ± 10	335 ± 16	6500	75 ± 4	33000	271 ± 100	drug concentration at which an increase of apoptotic cells became appreciable ([8]; followed by a plateau): > 3.3 µM; IC50 [14]: 14000 ± 2800 nM; IC50 [18, 27]: 44 ± 15 nM; IC50 [18, 28]: 44 ± 15 nM; IC50 [18, 29]: 44 nM; IC50 [20]: 4 ± 2 nM; IC50 [21]: 22 ± 10 nM; IC50 [22, 30]: 1230 nM; IC50 [22, 31]: 651 ± 50 nM
N#CC[C@H](C1CCCC1)n1cc(-c2ncnc3[nH]ccc23)cn1 [Ruxolitinib, ruxolitinib]		167 ± 70	4 ± 2	43 ± 4		12 ± 5	500	1300	> 5000	46 ± 10	4 ± 3				1.8 ± 1	209 ± 40	1870	39 ± 6	10000	840 ± 300	
